Source: US9801880B2, “Use of kinase inhibitors” (BerGenBio AS, priority 2013, dated 2017)
“And” between values parts separate entries of the source, which are not always exact repeats. Equal entries are not always repeated.

What was measured:
[1] = system: T315I-mutated BCR-ABL1 transduced bone marrow cells; assay: Preclinical CML model, bone marrow cells transduced with T315I-mutated BCR-ABL1; format: in vivo; settings: 25 (or 50) mg/Kg twice per day; Balb/c mice
Experimental: 6- to 8 week old male Balb/c mice were sublethally irradiated and i.v. injected with 0.5×10^6 retroviral transduced BM cells (pMSCV_gfp/BCR-ABL_T315I).
Bone marrow donor mice: To harvest donor bone marrow mice were injected subcutaneously with 5-FU (150 mg/kg mice). The bone marrow was isolated five days later and transduced with the desired retroviral construct. [Daley, G. Q., R. A. Van Etten, and D. Baltimore, Induction of chronic myelogenous leukemia in mice by the P210bcr/abl gene of the Philadelphia chromosome. Science, 1990. 247(4944): p. 824-30.]

Flt1 [2] = target: T1, Flt1 (Homo sapiens, UniProt P17948); assay: KinomeScan competition binding assay; design: purchased DiscoveRx Corporation (KinomeScan service)
T1 sequence (P17948 27-1338): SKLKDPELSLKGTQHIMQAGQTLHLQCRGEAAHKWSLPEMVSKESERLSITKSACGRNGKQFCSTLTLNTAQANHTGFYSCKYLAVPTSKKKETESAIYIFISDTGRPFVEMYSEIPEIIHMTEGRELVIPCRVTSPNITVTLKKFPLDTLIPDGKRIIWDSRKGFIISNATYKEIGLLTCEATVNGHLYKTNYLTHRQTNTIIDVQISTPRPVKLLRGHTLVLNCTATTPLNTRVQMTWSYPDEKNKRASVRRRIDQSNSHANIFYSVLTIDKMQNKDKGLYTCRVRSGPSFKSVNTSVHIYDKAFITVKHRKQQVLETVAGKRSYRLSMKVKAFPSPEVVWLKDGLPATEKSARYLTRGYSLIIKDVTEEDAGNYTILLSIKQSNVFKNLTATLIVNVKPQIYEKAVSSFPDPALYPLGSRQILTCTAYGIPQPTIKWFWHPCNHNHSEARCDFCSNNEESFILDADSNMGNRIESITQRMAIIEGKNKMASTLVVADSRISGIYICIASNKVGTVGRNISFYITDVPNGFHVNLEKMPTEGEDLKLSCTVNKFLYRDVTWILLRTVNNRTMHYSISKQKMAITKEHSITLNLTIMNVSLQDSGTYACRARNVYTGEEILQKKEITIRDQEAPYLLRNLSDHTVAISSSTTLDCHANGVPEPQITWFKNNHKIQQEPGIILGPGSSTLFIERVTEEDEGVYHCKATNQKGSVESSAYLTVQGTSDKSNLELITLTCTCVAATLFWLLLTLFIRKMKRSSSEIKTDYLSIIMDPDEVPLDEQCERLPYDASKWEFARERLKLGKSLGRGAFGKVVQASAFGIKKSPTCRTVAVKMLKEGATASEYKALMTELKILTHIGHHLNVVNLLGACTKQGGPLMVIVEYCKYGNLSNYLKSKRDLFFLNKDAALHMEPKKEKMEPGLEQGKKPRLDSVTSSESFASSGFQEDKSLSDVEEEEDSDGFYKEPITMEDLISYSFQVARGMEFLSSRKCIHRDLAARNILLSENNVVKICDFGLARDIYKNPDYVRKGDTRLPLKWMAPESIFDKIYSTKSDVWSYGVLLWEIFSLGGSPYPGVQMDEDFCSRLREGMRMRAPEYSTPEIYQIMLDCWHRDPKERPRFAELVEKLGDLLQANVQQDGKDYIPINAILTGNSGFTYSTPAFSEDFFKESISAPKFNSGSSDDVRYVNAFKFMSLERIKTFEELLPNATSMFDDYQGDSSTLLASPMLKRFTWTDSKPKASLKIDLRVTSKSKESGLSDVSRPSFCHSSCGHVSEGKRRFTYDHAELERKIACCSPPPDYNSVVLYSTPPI
Text: (§1) Detailed assay methodologies can be found in the relevant references cited herein, or in the KinaseProfiler Service Assay Protocols (v54, 2011) available from EMD Millipore (www.emdmillipore.com), or from the KinomeScan website (www.kinomescan.com), as appropriate. (For a more detailed description of KINOMEscan's assay technology, see: Fabian et al. A small molecule-kinase interaction map for clinical kinase inhibitors. Nat. Biotechnol. 23, 329-336 (2005)). A summary is provided below.
(§2) KinomeScan™ assays (DiscoveRx Corporation, San Diego, Calif., USA) are active-site-directed competition binding assays. […] The amount of kinase captured in test versus control samples is determined by using a qPCR method that detects the associated DNA label on each kinase molecule. Dissociation constants (Kd) for test compound-kinase interactions are calculated by measuring the amount of kinase captured on the solid support as a function of the test compound concentration.

Flt3 [3] = target: T2, Flt3 (Homo sapiens, UniProt P36888); assay: KinomeScan competition binding assay; design: purchased DiscoveRx Corporation (KinomeScan service); settings: Flt3 wild-type
Text: as §1, §2

Abl(M351T) = Abl(M351T) (Homo sapiens, UniProt P00519, M351T); assay: KinomeScan competition binding assay; design: purchased DiscoveRx Corporation (KinomeScan service)
Text: as §1, §2

Flt1 [4] = target: T1, Flt1; assay: KinaseProfiler kinase activity assay; format: biochemical; design: purchased EMD Millipore Corp. (KinaseProfiler service); settings: ATP at Km
Text: (§3) A summary is provided below.

Flt3 (D835Y) = Flt3 (D835Y) (Homo sapiens, UniProt P36888, D835Y); assay: KinaseProfiler kinase activity assay; format: biochemical; design: purchased EMD Millipore Corp. (KinaseProfiler service); settings: ATP at Km
Text: as §3

Stk10 = Stk10 (Homo sapiens, UniProt O94804); assay: KinaseProfiler kinase activity assay; format: biochemical; design: purchased EMD Millipore Corp. (KinaseProfiler service); settings: Stk10 (LOK); ATP at Km
Sequence of Stk10 (O94804 whole entry): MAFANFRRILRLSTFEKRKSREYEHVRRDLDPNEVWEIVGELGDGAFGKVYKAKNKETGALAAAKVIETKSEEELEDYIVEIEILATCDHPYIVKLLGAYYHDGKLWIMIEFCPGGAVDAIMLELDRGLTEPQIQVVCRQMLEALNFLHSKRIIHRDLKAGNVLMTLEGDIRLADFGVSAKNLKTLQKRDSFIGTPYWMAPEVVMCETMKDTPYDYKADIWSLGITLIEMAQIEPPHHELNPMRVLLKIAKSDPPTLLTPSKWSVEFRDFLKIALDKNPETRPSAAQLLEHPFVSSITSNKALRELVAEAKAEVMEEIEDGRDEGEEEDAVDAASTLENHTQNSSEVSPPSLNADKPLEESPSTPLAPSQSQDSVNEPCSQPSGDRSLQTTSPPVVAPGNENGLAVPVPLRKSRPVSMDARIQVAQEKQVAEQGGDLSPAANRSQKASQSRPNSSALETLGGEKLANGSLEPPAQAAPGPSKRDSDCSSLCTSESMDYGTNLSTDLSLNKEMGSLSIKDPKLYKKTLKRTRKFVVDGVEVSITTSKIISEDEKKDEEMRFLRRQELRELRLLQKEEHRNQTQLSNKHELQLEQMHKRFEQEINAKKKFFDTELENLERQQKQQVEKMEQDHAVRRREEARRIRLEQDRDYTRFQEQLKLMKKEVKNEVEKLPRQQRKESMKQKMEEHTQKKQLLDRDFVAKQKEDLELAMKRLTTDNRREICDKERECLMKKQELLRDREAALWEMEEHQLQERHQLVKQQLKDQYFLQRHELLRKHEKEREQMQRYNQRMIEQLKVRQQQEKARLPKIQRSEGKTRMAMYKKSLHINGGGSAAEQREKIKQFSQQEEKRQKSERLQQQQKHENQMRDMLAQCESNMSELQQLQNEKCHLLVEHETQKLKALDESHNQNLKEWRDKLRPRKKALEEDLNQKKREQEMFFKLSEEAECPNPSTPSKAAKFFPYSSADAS
Text: as §3

TEK = TEK (Homo sapiens, UniProt Q02763); assay: KinaseProfiler kinase activity assay; format: biochemical; design: purchased EMD Millipore Corp. (KinaseProfiler service); settings: ATP at Km
Sequence of TEK (Q02763 23-1124): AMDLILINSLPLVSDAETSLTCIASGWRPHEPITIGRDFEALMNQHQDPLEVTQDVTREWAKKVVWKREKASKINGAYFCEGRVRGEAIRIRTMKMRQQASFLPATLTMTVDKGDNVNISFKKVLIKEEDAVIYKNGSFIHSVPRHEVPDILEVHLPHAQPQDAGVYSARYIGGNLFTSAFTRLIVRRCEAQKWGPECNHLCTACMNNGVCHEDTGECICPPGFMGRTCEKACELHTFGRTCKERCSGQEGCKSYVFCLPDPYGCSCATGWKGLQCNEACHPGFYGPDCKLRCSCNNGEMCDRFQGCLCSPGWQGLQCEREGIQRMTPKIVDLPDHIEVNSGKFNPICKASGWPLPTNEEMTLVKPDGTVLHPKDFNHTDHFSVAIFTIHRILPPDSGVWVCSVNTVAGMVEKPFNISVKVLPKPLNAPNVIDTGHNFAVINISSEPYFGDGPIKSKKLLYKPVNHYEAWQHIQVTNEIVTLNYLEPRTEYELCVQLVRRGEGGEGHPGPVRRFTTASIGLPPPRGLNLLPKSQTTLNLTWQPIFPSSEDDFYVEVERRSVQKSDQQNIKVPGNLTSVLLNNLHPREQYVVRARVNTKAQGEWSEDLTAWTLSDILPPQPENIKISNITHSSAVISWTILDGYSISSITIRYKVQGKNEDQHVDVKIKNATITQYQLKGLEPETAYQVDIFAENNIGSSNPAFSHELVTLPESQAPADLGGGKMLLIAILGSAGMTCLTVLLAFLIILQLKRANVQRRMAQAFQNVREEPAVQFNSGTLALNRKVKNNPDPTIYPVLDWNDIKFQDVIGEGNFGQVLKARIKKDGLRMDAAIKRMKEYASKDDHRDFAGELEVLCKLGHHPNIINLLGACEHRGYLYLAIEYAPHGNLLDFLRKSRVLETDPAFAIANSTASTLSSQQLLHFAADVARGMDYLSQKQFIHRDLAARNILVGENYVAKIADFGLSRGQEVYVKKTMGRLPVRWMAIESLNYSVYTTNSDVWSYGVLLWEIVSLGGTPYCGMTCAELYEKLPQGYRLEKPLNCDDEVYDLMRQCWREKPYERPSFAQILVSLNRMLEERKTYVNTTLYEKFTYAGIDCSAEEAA
Text: as §3

Flt3 [5] = target: T2, Flt3; assay: KinaseProfiler kinase activity assay; format: biochemical; design: purchased EMD Millipore Corp. (KinaseProfiler service); settings: Flt3 wild-type; ATP at Km
Text: as §3

Ret (V804L) = Ret (V804L) (Homo sapiens, UniProt P07949, V804L); assay: KinaseProfiler kinase activity assay; format: biochemical; design: purchased EMD Millipore Corp. (KinaseProfiler service); settings: ATP at Km
Sequence of Ret (V804L) (P07949 29-1114 V804L): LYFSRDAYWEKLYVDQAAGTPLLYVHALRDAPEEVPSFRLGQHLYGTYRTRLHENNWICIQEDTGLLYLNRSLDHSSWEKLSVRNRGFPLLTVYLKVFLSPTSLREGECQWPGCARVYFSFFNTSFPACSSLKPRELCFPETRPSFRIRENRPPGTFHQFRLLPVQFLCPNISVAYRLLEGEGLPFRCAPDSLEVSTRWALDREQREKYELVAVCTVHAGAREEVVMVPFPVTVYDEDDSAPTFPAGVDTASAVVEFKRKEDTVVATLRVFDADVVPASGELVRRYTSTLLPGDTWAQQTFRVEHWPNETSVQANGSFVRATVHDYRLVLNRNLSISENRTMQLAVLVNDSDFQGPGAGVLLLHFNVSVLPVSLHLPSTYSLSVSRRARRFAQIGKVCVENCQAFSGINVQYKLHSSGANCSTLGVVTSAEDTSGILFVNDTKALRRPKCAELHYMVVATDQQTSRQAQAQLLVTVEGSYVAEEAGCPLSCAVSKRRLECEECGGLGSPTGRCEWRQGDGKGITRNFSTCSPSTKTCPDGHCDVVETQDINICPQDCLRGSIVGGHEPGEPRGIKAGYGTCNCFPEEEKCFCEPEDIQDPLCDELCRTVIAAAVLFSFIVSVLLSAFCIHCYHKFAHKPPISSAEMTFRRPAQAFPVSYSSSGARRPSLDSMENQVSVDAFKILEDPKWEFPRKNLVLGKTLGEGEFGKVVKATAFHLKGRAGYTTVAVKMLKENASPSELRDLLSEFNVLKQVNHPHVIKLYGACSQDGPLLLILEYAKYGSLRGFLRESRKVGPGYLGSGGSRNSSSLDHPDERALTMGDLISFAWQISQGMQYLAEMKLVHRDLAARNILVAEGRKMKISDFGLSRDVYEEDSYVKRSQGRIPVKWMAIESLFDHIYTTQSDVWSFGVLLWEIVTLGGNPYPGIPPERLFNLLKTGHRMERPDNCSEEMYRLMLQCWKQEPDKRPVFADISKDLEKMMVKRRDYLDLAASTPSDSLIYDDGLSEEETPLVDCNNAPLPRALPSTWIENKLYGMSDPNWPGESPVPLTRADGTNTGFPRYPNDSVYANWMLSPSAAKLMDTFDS
Text: as §3

Flt4 = Flt4 (Homo sapiens, UniProt P35916); assay: KinaseProfiler kinase activity assay; format: biochemical; design: purchased EMD Millipore Corp. (KinaseProfiler service); settings: ATP at Km
Text: as §3

Wee1 = Wee1 (Homo sapiens, UniProt P30291); assay: KinaseProfiler kinase activity assay; format: biochemical; design: purchased EMD Millipore Corp. (KinaseProfiler service); settings: ATP at Km
Text: as §3

Ret (V804M) = Ret (V804M) (Homo sapiens, UniProt P07949, V804M); assay: KinaseProfiler kinase activity assay; format: biochemical; design: purchased EMD Millipore Corp. (KinaseProfiler service); settings: ATP at Km
Sequence of Ret (V804M) (P07949 29-1114 V804M): as the sequence (P07949 29-1114 V804L) above, with L776M counted along it
Text: as §3

Yes = Yes (Homo sapiens, UniProt P07947); assay: KinaseProfiler kinase activity assay; format: biochemical; design: purchased EMD Millipore Corp. (KinaseProfiler service); settings: ATP at Km
Sequence of Yes (P07947 whole entry): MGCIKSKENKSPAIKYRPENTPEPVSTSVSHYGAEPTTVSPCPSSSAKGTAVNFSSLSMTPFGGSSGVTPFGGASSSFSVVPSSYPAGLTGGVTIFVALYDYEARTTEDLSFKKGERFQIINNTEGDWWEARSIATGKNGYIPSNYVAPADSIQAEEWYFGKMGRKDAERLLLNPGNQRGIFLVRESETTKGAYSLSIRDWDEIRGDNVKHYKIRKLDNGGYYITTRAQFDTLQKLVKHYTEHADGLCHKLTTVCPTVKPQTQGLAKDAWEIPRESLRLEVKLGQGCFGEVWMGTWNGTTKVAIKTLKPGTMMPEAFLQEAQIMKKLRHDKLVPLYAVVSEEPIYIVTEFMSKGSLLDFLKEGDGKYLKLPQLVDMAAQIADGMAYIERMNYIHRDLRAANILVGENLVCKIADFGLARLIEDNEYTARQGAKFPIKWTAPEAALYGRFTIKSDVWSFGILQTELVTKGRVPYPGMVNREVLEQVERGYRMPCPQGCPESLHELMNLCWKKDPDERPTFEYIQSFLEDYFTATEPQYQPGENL
Text: as §3

[6] = system: Ba/F3 cells (WT, FLT3 WT, FLT3 ITD, FLT3 D835Y); assay: WST-1 and 3H-Thymidine incorporation cell proliferation assays, all Ba/F3 lines; format: cell-based, Murine; settings: by 3 μM; regardless of cell line
Text: Murine pro-B lymphocyte line Ba/F3 wild type (Ba/F3 WT), and Ba/F3 lines stably transduced with expression vectors that encoded wild-type human FLT3 (Ba/F3 FLT3 WT cells) or human FLT3 containing an ITD mutation (Ba/F3-ITD cells) or D835Y (Ba/F3 D835Y cells) point mutations, which lead to constitutively functional activation of the protein, were obtained from Bjørn Tore Gjertsen (Department of Clinical Science, Hematology Section, University of Bergen, Bergen, Norway). […]
Proliferation of cells was assessed using the tetrazolium salt WST-1 that is cleaved to chromogenic formazan dye by mitochondrial dehydrogenases in viable cells. […] The absorbance of the samples was measured by Spectramax Plus 384 Spectrophotometer (Molecular Devices Corp., Sunnyvale, Calif., USA) and the percentage of proliferation was calculated by using the following formula: (Arbitrary units (AU) of treated sample−AU of background control)/(AU of untreated sample−AU of background control).
Following 18 hours incubation, the DNA was harvested and radioactivity was assessed by liquid scintillation counting (Packard Microplate Scintillation and Luminescence counter, Perkin Elmer Life and Analytical Science, Inc., Waltham, USA).

Question: Which leukemia cell burden [1] does the source give for `Nc1nc(Nc2ccc3c(c2)CC[C@@H](N2CCCC2)CC3)nn1-c1cc2c(nn1)-c1ccccc1CCC2` [Compound A, 1-(6,7-dihydro-5H-benzo[6,7]cyclohepta[1,2-c]pyridazine-3-yl)-N^3-(7-(S)-(pyrrolidin-1-yl)-6,7,8,9-tetrahydro-5H-benzo[7]annulene-2-yl)-1H-1,2,4-triazole-3,5-diamine] here?
Answer: reduced leukemia cell burden

Question: And the Kd (Flt1 [2])?
Answer: 400 nM

Question: And the Kd (Flt3 [3])?
Answer: 50 nM

Question: What about the Kd (Abl(M351T)) of the same compound?
Answer: 104 nM

Question: And the IC50 (Flt1 [4])?
Answer: 40 nM

Question: What about the IC50 (Flt3 (D835Y)) of the same compound?
Answer: 13 nM

Question: And the IC50 (Stk10)?
Answer: 22 nM

Question: And the IC50 (TEK)?
Answer: 30 nM and 41 nM

Question: And the IC50 (Flt3 [5])?
Answer: 122 nM

Question: And the IC50 (Ret (V804L))?
Answer: 11 nM

Question: And the IC50 (Flt4)?
Answer: 41 nM

Question: And the IC50 (Wee1)?
Answer: 32 nM

Question: What about the IC50 (Ret (V804M)) of the same compound?
Answer: 21 nM

Question: And the IC50 (Yes)?
Answer: 43 nM

Question: What about the “cell death in proliferation assays” value [6] of the same compound?
Answer: all cells are dead
